# Data as given in patent publication US10081662B2, “Modified relaxin B chain peptides” (The Florey Institute of Neuroscience and Mental Health, priority 2014, dated 2018).
# Peptide text beside a SMILES is read from it.
# What was measured:
# MMP-2 [1] = assay: MMP-2 expression by gelatin zymography in human cardiac fibroblasts; assay type: cell-based; details: gelatin zymography and densitometry
# MMP-2 [2] = assay: MMP-2 expression by gelatin zymography in rat renal myofibroblasts; assay type: cell-based; details: 16.80 nM, gelatin zymography and densitometry
# Description: Renal myofibroblast cells natively expressing human RXFP1 were plated out onto 12-well plates with a density of 50 000 cells per well. Cells were treated with 16.8 nM H2-relaxin and 16.80 nM B7-33 C11.23S. Expression of basal MMP-2 levels was monitored with no treatment applied to wells (control). Each treatment was carried out in duplicates (n=5), for each replicate in Dulbecco's modified Eagle's medium (DMEM) containing 10% fetal calf serum, 2.2% HEPES buffer, 1% L-glutamine and 2% penicillin/strepticillin. The cells were incubated over 48 hrs in a humidified chamber with 5% CO2 at 37.8° C. temperature. Following this, media was aspirated off and experiment continued in serum free media (DMEM containing 2.2% HEPES buffer, 1% L-glutamine, 2% penicillin/strepicillin and 2% lactalbumin hydrolysate) for a further 24 hours in a humidified chamber with 5% CO2 at 37.8° C. […]. Media were then collected from various treatments and gel zymography was carried out.
# For determination of MMP-2 expression within various treatments, zymographic assays of gelatinases were carried out. […] (0.05M Tris-HCl pH 7.4, 0.01M CaCl2, 5% Triton X-100, 0.02% sodium azide, 1 μM ZnCl2. The gels were then stained with 0.1% Cootnassie blue containing 40% 2-propanol and destained with 7% acetic acid before analysed by ImageJ software.
# [3] = test system: mouse model of isoproterenol (ISO) induced cardiac fibrosis; assay: Mouse model of isoproterenol-induced cardiomyopathy (cardiac fibrosis); assay type: in vivo; details: 129SV mice, 14 days, s.c. minipump; relative to isoproterenol treatment
# Source text: Seven to eight-week old male 129SV mice (which are sensitive to tissue injury and fibrosis) and age-matched female Balb/c mice (which are sensitive to changes in airway hyperresponsiveness) were used for the induction of isoproterenol-induced cardiomyopathy and ovalbumin-induced chronic allergic airways disease, respectively. 16 five week-old male C57BL/6 mice were used in the induction of prostate cancer growth. All animals were obtained from Monash Animal Services (Monash University, Clayton, Victoria, Australia) and housed under standard conditions (maintained on an 12 h light-12 h dark lighting cycle with free access to food and water) in the Department of Pharmacology Animal Room at Monash University.
# The mid zone of the male mouse heart and largest lung lobe from female Balb/c mice were fixed in 10% neutral buffered formalin for 24-48 h before being processed and embedded routinely in paraffin wax. Representative sections of tissue, 3-5 um each, were taken and stained with either picrosirius red (Samuel et al. 2011 Lab Invest 91, 675-690) for the detection of interstitial collagen or Masson's trichrome (Royce et al, 2009, Endocrinology 150, 2692-2699) for the detection of subepithelial basement membrane collagen deposition).
# Changes in picrosirius-red stained interstitial collagen or epithelial thickness and subepithelial collagen (fibrosis) around the airway lumen from Masson's trichrome-stained sections; which were all captured (at ×20 magnification) using a SPOT digital camera (Q Imaging, Burnaby, BC, Canada) and analysed with Image J 1.3 software (National Institutes of Health, Bethesda, Md.). Four to five fields per mid zone of the heart or 4-5 airways (of 150-350 μm in diameter) per mouse were assessed. Epithelial thickness and subepithelial collagen regions were traced with a digital pen and the thickness of each region calculated by the imaging software. Results were expressed as mean thickness ([…]) of the 4-5 airways sampled.
# The apical region of the heart or second largest lung lobe from each mouse was treated as described previously (Samuel C S, et at., 2003, FASEB J 17, 121-123; Royce et at. 2009, Endocrinology 150, 2692-2699) for the determination of hydroxyproline content. Hydroxyproline values were estimated based on a standard curve constructed with serial dilutions of a 0.1 mg/mL stock of trans-4-hydroxyproline-L-proline (Sigma-Aldrich). Hydroxyproline values were then converted to collagen content as detailed previously (Samuel CS, et al. 2004. Endocrinology 145, 4125-4133) and, in turn, divided by the dry weight of each corresponding left ventricular or lung tissue assessed to yield collagen concentration (a measure of fibrosis). […]
smiles,measurement,setting,value
CC[C@H](C)[C@H](NC(=O)[C@H](C)NC(=O)[C@@H](NC(=O)[C@H](CCC(N)=O)NC(=O)[C@H](C)NC(=O)[C@H](CCCNC(=N)N)NC(=O)[C@@H](NC(=O)[C@H](CC(C)C)NC(=O)[C@H](CCC(=O)O)NC(=O)[C@H](CCCNC(=N)N)NC(=O)CNC(=O)[C@H](CO)NC(=O)[C@H](CC(C)C)NC(=O)[C@H](CCCCN)NC(=O)[C@@H](NC(=O)[C@@H](N)C(C)C)[C@@H](C)CC)C(C)C)[C@@H](C)CC)C(=O)N[C@@H](CO)C(=O)NCC(=O)N[C@@H](CCSC)C(=O)N[C@@H](CO)C(=O)N[C@H](C(=O)N[C@@H](Cc1c[nH]c2ccccc12)C(=O)N[C@@H](CO)C(=O)N[C@@H](CCCCN)C(=O)N[C@@H](CCCNC(=N)N)C(=O)N[C@@H](CO)C(=O)N[C@@H](CC(C)C)C(N)=O)[C@@H](C)O [B7-33 C11.23S] (H-VIKLSGRELVRAQIAISGMSTWSKRSL-NH2),Induction of MMP-2 expression,MMP-2 [1],levels similar to those induced by the native H2 relaxin
same,Induction of MMP-2 expression,MMP-2 [2],levels similar to those induced by the native H2 relaxin
same,Percentage of interstitial collagen in the left ventricle (picrosirius red),[3],significantly reduced
same,Total left ventricular collagen concentration (hydroxyproline analysis),[3],significantly reduced
